Legend:
[1] = Blood glucose after intranasal delivery of insulin to rats; assay type: in vivo, Male SD rats; conditions: for Glucose (% relative to glucose level before administration): intranasal, insulin 10 U/kg, mean ± SE, n = 5 (SE in parentheses)
Procedure: (§1) Male SD rats (5 per group) weighing about 220 g were fasted for 16 hours. Under pentobarbital anaesthesia, the animals were prepared for intranasal therapy according to the procedure described in International Journal of Pharmaceutics 7, 317 (1981). Then, using a micropipet, 0.1 ml/kg of an insulin solution was directly administered into the nasal cavity and the blood was serially sampled from the tail vein for determination of blood glucose and insulin concentrations.
(§2) As said insulin solution, a solution of 10U of porcine insulin (about 0.38 mg) and 0 mg-5 mg of LThB (corresponding to 5%) in 0.1 ml of isotonic buffer (pH 7.4) was used.
(§3) Insulin dose: 10 U/Kg, SD rats, 7W, .male., 220 g
*% relative to glucose level before administration (mean ± SE, n = 5)

[2] = Plasma insulin level (EIA, GLAZYME Kit) after intranasal delivery of insulin to rats; assay type: in vivo, Male SD rats; conditions: for Insulin (plasma insulin level): insulin 10 U/kg
Procedure: as §1, §2, §3
Plasma insulin level: EIA (GLAZYME Kit, Wako)

| Substance | Blood glucose level on addition of LThB, compared with the control (without LThB) ([1]; intranasal with insulin, vs control without LThB) | Insulin (plasma insulin level) ([2]; 0.5 hr) [μU/ml] | Insulin (plasma insulin level) ([2]; 1.0 hr) [μU/ml] | Insulin (plasma insulin level) ([2]; 1.5 hr) [μU/ml] | Insulin (plasma insulin level) ([2]; 2.0 hr) [μU/ml] | Insulin (plasma insulin level) ([2]; 3.0 hr) [μU/ml] | Insulin (plasma insulin level) ([2]; 4.0 hr) [μU/ml] | Absorption of insulin from the nasal mucosa (blood insulin concentration) ([2]; with addition of LThB) | Glucose (% relative to glucose level before administration) ([1]; 0.5 hr) | Glucose (% relative to glucose level before administration) ([1]; 1.0 hr) | Glucose (% relative to glucose level before administration) ([1]; 1.5 hr) | Glucose (% relative to glucose level before administration) ([1]; 2.0 hr) | Glucose (% relative to glucose level before administration) ([1]; 3.0 hr) | Glucose (% relative to glucose level before administration) ([1]; 4.0 hr) |
| --- | --- | --- | --- | --- | --- | --- | --- | --- | --- | --- | --- | --- | --- | --- |
| LThB | marked fall of blood glucose level |  |  |  |  |  |  |  |  |  |  |  |  |  |
| insulin, No addition: 10U of porcine insulin (about 0.38 mg) in 0.1 ml of isotonic buffer (pH 7.4), without LThB |  | 0.83 | 0.0 | 0.0 | 0.0 | 4.51 | 0.0 | effectively absorbed from the nasal mucosa | 135.9 (10.5) % | 141.7 (8.6) % | 133.4 (11.2) % | 127.3 (9.1) % | 132.9 (11.4) % | 136.3 (13.5) % |

Reference: patent US5554378A, “Pharmaceutical composition and its mucosal use” (Takeda Chemical Industries, Ltd., priority 1990, dated 1996)
